These results are taken from US9526796B2, “Peptide-based in vivo siRNA delivery system” (priority 2010, dated 2016).

Non-standard residues stand in square brackets, D forms with d. No end group written: not given here. *: point of attachment. Nle = CCCC[C@H](N)C(=O)O; Cbz = O=C(OCc1ccccc1)*

The subject of this assay is ApoB. As to the kind of experiment: Knockdown of endogenous serum ApoB in mice after co-injection of masked melittin delivery peptide and ApoB siRNA-cholesterol conjugate. Type of assay: in vivo. How it is done: RNAi polynucleotide conjugates and masked melittin peptides were synthesized as described above. Six to eight week old mice (strain C57BL/6 or ICR, ˜18-20 g each) were obtained from Harlan Sprague Dawley (Indianapolis Ind.). Mice were housed at least 2 days prior to injection. Feeding was performed ad libitum with Harlan Teklad Rodent Diet (Harlan, Madison Wis.). Mice were injected with 0.2 mL solution of delivery peptide and 0.2 mL siRNA conjugates into the tail vein. For simultaneous injection of delivery peptide and siRNA, the siRNA-conjugate was added to modified peptide prior to injection and the entire amount was injected. The composition was soluble and nonaggregating in physiological conditions. Solutions were injected by infusion into the tail vein.
Mice were fasted for 4 h (16 h for rats) before serum collection by submandibular bleeding. For rats blood was collected from the jugular vein. Serum ApoB protein levels were determined by standard sandwich ELISA methods. Briefly, a polyclonal goat anti-mouse ApoB antibody and a rabbit anti-mouse ApoB antibody (Biodesign International) were used as capture and detection antibodies respectively. An HRP-conjugated goat anti-rabbit IgG antibody (Sigma) was applied afterwards to bind the ApoB/antibody complex. Absorbance of tetramethyl-benzidine (TMB, Sigma) colorimetric development was then measured by a Tecan Safire2 (Austria, Europe) microplate reader at 450 nm.
Melittin was reversibly modified with CDM-NAG as described above. The indicated amount of melittin was then co-injected with the 200 μg ApoB siRNA-cholesterol conjugate. Effect on ApoB levels were determined as described above.
Melittin was reversibly modified with CDM-NAG as described above. The indicated amount of melittin was then co-injected with 50 μg ApoB siRNA-cholesterol conjugate. Effect on ApoB levels were determined as described above.
Melittin was reversibly modified with CDM-NAG (5×) as described above. The indicated amount of melittin was then co-injected with the indicated amount of ApoB siRNA-cholesterol conjugate. Effect on ApoB levels were determined as described above.
Melittin was reversibly modified with the indicated amount of CDM-NAG as described above. 50 μg melittin was then co-injected with the 100 μg ApoB siRNA-cholesterol conjugate. Effect on ApoB levels were determined as described above.
Melittin peptides having the indicated sequence were reversibly modified with CDM-NAG (5×) as described above. The indicated amount of melittin was then co-injected with the indicated amount of ApoB siRNA-cholesterol conjugate. Effect on ApoB levels were determined as described above.
Melittin peptides containing the indicated PEG amino terminal modifications were synthesized as described above. The PEG amino terminal modified melittin peptides were then reversibly modified with 5×CDM-NAG as described above. The indicated amount of Melittin was then co-injected with the 100-200 μg ApoB siRNA-cholesterol conjugate. Effect on ApoB levels were determined as described above. Addition of PEG less than 5 kDa in size decreased toxicity of the melittin peptides.

Setting [1] is: CDM-NAG (5×), 400 μg peptide per mouse, 200 μg siRNA per mouse.
[2] abbreviates: CDM-NAG (5×), 100 μg peptide per mouse, 100 μg siRNA per mouse.
Setting [3] is: CDM-NAG (5×), 400 μg peptide per mouse, 100 μg siRNA per mouse.

(Ac-CIGAVLKVLTTGLPALISWIKRKRQQ-NH2)2 had a percent knockdown under setting [1] of 45%.

Substance Ac-CIGAVLKVLTTGLPALISWIKRKRQQ-NH2 registered a percent knockdown under setting [1] of 85%.

For the substance “Acetyl-dMel-NH2 (Seq ID 107): melittin peptide derivative (Ac-G[dI]G[dA][dI][dL][dK][dV][dL][dA][dT]G[dL][dP][dT][dL][dI][dS][dW][dI][dK][dN][dK][dR][dK][dQ]-NH2; SMILES CC[C@@H](C)[C@@H](NC(=O)CNC(C)=O)C(=O)NCC(=O)N[C@H](C)C(=O)N[C@@H](C(=O)N[C@H](CC(C)C)C(=O)N[C@H](CCCCN)C(=O)N[C@@H](C(=O)N[C@H](CC(C)C)C(=O)N[C@H](C)C(=O)N[C@@H](C(=O)NCC(=O)N[C@H](CC(C)C)C(=O)N1CCC[C@@H]1C(=O)N[C@@H](C(=O)N[C@H](CC(C)C)C(=O)N[C@@H](C(=O)N[C@H](CO)C(=O)N[C@H](Cc1c[nH]c2ccccc12)C(=O)N[C@@H](C(=O)N[C@H](CCCCN)C(=O)N[C@H](CC(N)=O)C(=O)N[C@H](CCCCN)C(=O)N[C@H](CCCNC(=N)N)C(=O)N[C@H](CCCCN)C(=O)N[C@H](CCC(N)=O)C(N)=O)[C@H](C)CC)[C@H](C)CC)[C@H](C)O)[C@H](C)O)C(C)C)[C@H](C)CC)”, the percent knockdown under setting [2] is on record as 89%.

For the substance “Apis Mellifera (Big Honey Bee; Seq ID 50): Apis mellifera melittin”, the percent knockdown under setting [3] stood at 72%.

Under setting [2], “C-Mel G1L (Seq ID 51): melittin peptide derivative (CLIGAILKVLATGLPTLISWIKNKRKQ; N-terminal cysteine; melittin-like peptide derive from Apis florea)” came in with a percent knockdown of 89%.

In turn, “C-dMel G1Nle (Seq ID 52): melittin peptide derivative (C[Nle]IGAILKVLATGLPTLISWIKNKRKQ; also: D-amino acids (dMel), positions not given here)” yielded a percent knockdown under setting [2] of 84%.

As to “CBZ-Mel (Seq ID 108): melittin peptide derivative (Cbz-GIGAILKVLATGLPTLISWIKNKRKQ)”, for the setting “CDM-NAG (5×), 100 μg peptide per mouse, 80 μg siRNA per mouse”, the percent knockdown was 96%.

Under setting [2], “CFK-G1L dMel-C (Seq ID 69): melittin peptide derivative (CFKLIGAILKVLATGLPTLISWIKNKRKQC; not fully specified (some residues); cysteine pairing not given here)” had a percent knockdown of 79%.

“CKLK-Mel G1L (Seq ID 57): melittin peptide derivative; in Table 9 also with amino terminal NAG-(PEG)2/4/8 or PEG (5k) (CKLKLIGAILKVLATGLPTLISWIKNKRKQ; N-terminal CKLK extension; melittin-like peptide derive from Apis florea)” registered a percent knockdown (5× CDM-NAG, amino terminal NAG-(PEG)2, 25 μg peptide, 100 μg siRNA) of 15%; a percent knockdown (5× CDM-NAG, amino terminal NAG-(PEG)2, 50 μg peptide, 100 μg siRNA) of 83%; a percent knockdown (5× CDM-NAG, amino terminal NAG-(PEG)4, 25 μg peptide, 100 μg siRNA) of 58%; a percent knockdown (5× CDM-NAG, amino terminal NAG-(PEG)4, 50 μg peptide, 100 μg siRNA) of 81%; a percent knockdown (5× CDM-NAG, amino terminal NAG-(PEG)4, 100 μg peptide, 100 μg siRNA) of 94%; a percent knockdown (5× CDM-NAG, amino terminal NAG-(PEG)8, 25 μg peptide, 100 μg siRNA) of 58%. Also, the percent knockdown is, setting by setting: (5× CDM-NAG, amino terminal NAG-(PEG)8, 50 μg peptide, 100 μg siRNA) 89%; (5× CDM-NAG, amino terminal NAG-(PEG)8, 100 μg peptide, 100 μg siRNA) 96%; (5× CDM-NAG, amino terminal PEG (5k), 100 μg peptide, 100 μg siRNA) 90%; (5× CDM-NAG, no PEG modification, 150 μg peptide, 100 μg siRNA) 91%; (5× CDM-NAG, no PEG modification, 400 μg peptide, 100 μg siRNA) 97%; (CDM-NAG (5×), 150 μg peptide per mouse, 100 μg siRNA per mouse) 91%.

As for “CKLK-dMel G1Nle (Seq ID 112): melittin peptide derivative (CKLK[Nle]IGAILKVLATGLPTLISWIKNKRKQ; also: D-amino acids (dMel), positions not given here)”, where the note is “CDM-NAG (5×), 200 μg peptide per mouse, 100 μg siRNA per mouse”, the percent knockdown is listed as 84%.

Substance “Dimethyl G-Mel G1L (Seq ID 53): melittin peptide derivative (dimethyl-GLIGAILKVLATGLPTLISWIKNKRKQ)” registered a percent knockdown under setting [2] of 91%.

For the substance “G1A (Seq ID 2): melittin peptide derivative (AIGAILKVLATGLPTLISWIKNKRKQ; melittin-like peptide derive from Apis florea)”, the percent knockdown under setting [2] is 88%.

“G1C (Seq ID 3): melittin peptide derivative (CIGAILKVLATGLPTLISWIKNKRKQ; melittin-like peptide derive from Apis florea)” registered a percent knockdown under setting [2] of 37%.

Take “G1F dMel (Seq ID 4): melittin peptide derivative ([dF][dI]G[dA][dI][dL][dK][dV][dL][dA][dT]G[dL][dP][dT][dL][dI][dS][dW][dI][dK][dN][dK][dR][dK][dQ])”: the percent knockdown (CDM-NAG (5×), 100 μg peptide per mouse, 50 μg siRNA per mouse) is on record as 94%.

“G1H (Seq ID 5): melittin peptide derivative (HIGAILKVLATGLPTLISWIKNKRKQ; melittin-like peptide derive from Apis florea)” showed a percent knockdown under setting [3] of 78%.

For “G1L Mel (1-23) (Seq ID 71): melittin peptide derivative (LIGAILKVLATGLPTLISWIKNK; melittin-like peptide derive from Apis florea)”, the percent knockdown under setting [3] came out at 69%.

The substance “G1L Mel-Cys (Seq ID 63): melittin peptide derivative (LIGAILKVLATGLPTLISWIKNKRKQC; C-terminal cysteine; melittin-like peptide derive from Apis florea)” had a percent knockdown under setting [3] of 82%.

Under setting [2], “G1L Mel-KLKC (Seq ID 65): melittin peptide derivative (LIGAILKVLATGLPTLISWIKNKRKQKLKC; C-terminal KLKC extension; melittin-like peptide derive from Apis florea)” registered a percent knockdown of 97%.

As for “G1L d(1-11)-1(12-26) (Seq ID 109): melittin peptide derivative ([dL][dI]G[dA][dI][dL][dK][dV][dL][dA][dT]GLPTLISWIKNKRKQ)”, under setting [2], the percent knockdown was 70%.

As to “G1L dMel-C (Seq ID 114): melittin peptide derivative ([dL][dI]G[dA][dI][dL][dK][dV][dL][dA][dT]G[dL][dP][dT][dL][dI][dS][dW][dI][dK][dN][dK][dR][dK][dQ]C)”, the percent knockdown (CDM-NAG (5×), 50 μg peptide per mouse, 100 μg siRNA per mouse) stood at 93%.

“G1L retro-dMel-KLK-PEG(5k) (Seq ID 115): melittin peptide derivative (KLK[dQ][dK][dR][dK][dN][dK][dI][dW][dS][dI][dL][dT][dP][dL]G[dT][dA][dL][dV][dK][dL][dI][dA]G[dI][dL]; also: PEG 5k conjugated)” registered a percent knockdown under setting [2] of 32%.

Under setting [3], “G1L retroMel-KLK-Stearoyl (Seq ID 75): melittin peptide derivative (KLKQKRKNKIWSILTPLGTALVKLIAGIL; also: stearoyl, site not given here)” returned a percent knockdown of 50%.

“G1L retroMel-Stearoyl (Seq ID 74): melittin peptide derivative (QKRKNKIWSILTPLGTALVKLIAGIL; also: stearoyl, site not given here)” registered a percent knockdown under setting [3] of 56%.

Under setting [3], “G1L, G12L (Seq ID 22): melittin peptide derivative (LIGAILKVLATLLPTLISWIKNKRKQ; melittin-like peptide derive from Apis florea)” gave a percent knockdown of 93%.
